In patent US12534450B2, “Methods and compositions for targeting PD-L1” (Aligos Therapeutics, Inc., priority 2021, dated 2026):

How the values were obtained:
[1] = target: PD-1/PD-L1 PPI (Homo sapiens, UniProt Q9NZQ7); assay: PDL1/PD1 Binding Assay; conditions: PDL1-6×His 0.3 nM, PD1-Fc-Avi-Biotin 2.5 nM, Acceptor/Donor beads, Envision reader
Summary of the method: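 AlphaScreen competition: compound (1% DMSO) preincubated 30 min RT with PDL1-6×His (0.3 nM), then PD1-Fc-Avi-Biotin (2.5 nM) 30 min; anti-His acceptor and streptavidin donor beads (20 ug/mL each) added, 1 h each, dark up to overnight. Buffer 25 mM Hepes pH 7.4, 150 mM NaCl. IC50 by four-parameter fit.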

[2] = test system: PD-1/PD-L1 interaction; assay: PD-1/PD-L1 NFAT Reporter Assay (co-culture of Jurkat T cells overexpressing PD-1 and PD-L1 expressing CHO cells); format: cell-based; conditions: Homo sapiens, Jurkat, 6 h, co-culture 6 hrs at 37° C., NFAT-mediated luciferase activity
Summary of the method: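 Compounds added to CHO cells expressing surface anti-CD3 and PD-L1, then Jurkat cells with PD-1 and NFAT-driven luciferase seeded on top; co-culture 6 hrs at 37° C. Luminescence read after ONE-Glo addition, EC50 from dose-response fit.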

Chain of PD-1/PD-L1 PPI (Q9NZQ7 19-238 limits assumed): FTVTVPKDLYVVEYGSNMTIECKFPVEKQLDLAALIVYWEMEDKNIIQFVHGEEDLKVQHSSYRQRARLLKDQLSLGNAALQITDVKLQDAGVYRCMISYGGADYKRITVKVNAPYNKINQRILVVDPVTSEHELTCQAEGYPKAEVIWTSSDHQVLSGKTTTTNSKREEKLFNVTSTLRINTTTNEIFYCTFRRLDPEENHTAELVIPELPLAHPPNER

| SMILES | IC50 [1] [nM] | EC50 [2] [nM] |
| --- | --- | --- |
| COc1nc(-c2cccc(-c3cccc(NC(=O)c4cn(C)c(=O)n(C)c4=O)c3Cl)c2Cl)cc2c1C(NCCO)CC2 [Compound D-5] | ≤ 10 | 10 to 100 |
| COc1nc(-c2cccc(-c3cccc(NC(=O)c4cn(C)c(=O)n(C)c4=O)c3Cl)c2Cl)cc2c1C(N[C@@H]1CCOC[C@H]1O)CC2 (stereo partly drawn) [Compound D-6] | ≤ 10 | 10 to 100 |
| COc1nc(-c2cccc(-c3cccc(NC(=O)c4cn(C)c(=O)n(C)c4=O)c3Cl)c2Cl)cc2c1C(N[C@H]1CCOC[C@H]1O)CC2 (stereo partly drawn) [Compound D-7] | ≤ 10 | 10 to 100 |
| COc1nc(-c2cccc(-c3cccc(NC(=O)c4cn(C)c(=O)n(C)c4=O)c3C)c2Cl)cc2c1C(NCC(N)=O)CC2 [Compound D-9] | ≤ 10 | 10 to 100 |
| COc1nc(-c2cccc(-c3cccc(NC(=O)c4cn(C)c(=O)n(C)c4=O)c3C)c2Cl)cc2c1C(NC1COC1)CC2 [Compound D-10] | ≤ 10 | 10 to 100 |
| COc1nc(-c2cccc(-c3cccc(NC(=O)c4cn(C)c(=O)n(C)c4=O)c3C)c2Cl)cc2c1C(NC1CC1)CC2 [Compound D-11] | ≤ 10 | 10 to 100 |
| COc1nc(-c2cccc(-c3cccc(NC(=O)c4cn(C)c(=O)n(C)c4=O)c3Cl)c2Cl)cc2c1C(N1CC3(CNC(=O)O3)C1)CC2 [Compound D-15] | ≤ 10 | 10 to 100 |
| COc1nc(-c2cccc(-c3cccc(NC(=O)c4cn(C)c(=O)n(C)c4=O)c3Cl)c2Cl)cc2c1C(N1CC3(CCN(C(=O)OC(C)(C)C)C3)C1)CC2 [Compound D-16] | 10 to 100 | 100 to 1000 |
| COc1nc(-c2cccc(-c3cccc(NC(=O)c4cn(C)c(=O)n(C)c4=O)c3C)c2C)cc2c1C(N1CC(C)(O)C1)CC2 [Compound D-17] | ≤ 10 | 10 to 100 |
| COc1nc(-c2cccc(-c3cccc(NC(=O)c4cn(C)c(=O)n(C)c4=O)c3C)c2C)cc2c1C(N1CC(C)(OC)C1)CC2 [Compound D-18] | ≤ 10 | 10 to 100 |
| COc1nc(-c2cccc(-c3cccc(NC(=O)c4cn(C)c(=O)n(C)c4=O)c3C)c2C)cc2c1C(N1C[C@@H](O)[C@@H]1C)CC2 (stereo partly drawn) [Compound D-19] | ≤ 10 | 100 to 1000 |
| CCCCOC(=O)N(C[C@@H]1CCC(=O)N1)[C@H]1CCc2cc(-c3cccc(-c4cccc(NC(=O)c5cn(C)c(=O)n(C)c5=O)c4C)c3Cl)nc(OC)c21 [Compound E-2] | ≤ 10 | > 10000 |
| COc1nc(-c2cccc(-c3cccc(NC(=O)c4cn(C)c(=O)n(C)c4=O)c3Cl)c2Cl)cc2c1C(N1CC3(CCNC3)C1)CC2 (stereo not shown) [Compound G-1] | ≤ 10 | 10 to 100 |
| COc1nc(-c2cccc(-c3cccc(NC(=O)c4cn(C)c(=O)n(C)c4=O)c3Cl)c2Cl)cc2c1C(N1CC3(CCN(C(C)=O)C3)C1)CC2 (stereo not shown) [Compound H-1] | ≤ 10 | ≤ 10 |
